Data as given in US8506946B2, “Compositions and methods for attracting noctuid moths” (Cotton Incorporated, priority 2006, dated 2013).

Assays:
[1] = test system: Heliothis virescens; assay: Field trap capture of Heliothis virescens with pheromone mixture with or without synergist (Tedders traps); type: in vivo
Description: An experiment was carried out near Monticello, Drew County in Arkansas to study the response of tobacco bud worm, Heliothis virescens to a pheromone synergist. The experiment was carried out in a habitat of cotton and soybean. β-caryophyllene was used as a synergist with a mixture of pheromones (Z,E)-9,12-tetradecadien-1-ol acetate and (Z)-9-tetradecen-1-ol acetate at the ratio of 7:3. Tedders traps were used in the experiment. Each pheromone trap was baited with the pheromone mixture and approximately 3-6 mg of 3-caryophyllene and each control trap was baited with the pheromone mixture. The control trap contained no β-caryophyllene or other synergists. The pheromone mixture used in the experiment was LURETAPE® obtained from Hereon Environmental in Emigsville, Pa. The trapped adult insects of Heliothis virescens were collected on a daily basis and the total number of trapped insects was counted. Statistical analysis was done using the Least Squares means separation from the SAS GLM procedure.

[2] = test system: Spodoptera exigua; assay: Field trap capture of Spodoptera exigua with (Z)-11-hexadecen-1-ol with or without synergist (Tedders traps); type: in vivo; conditions: approximately 3-6 mg β-caryophyllene added to (Z)-11-hexadecen-1-ol vs control trap with (Z)-11-hexadecen-1-ol only
Description: An experiment was carried out in three locations in Arkansas to study the response of beet army worm, Spodoptera exigua, in a cotton field to a pheromone synergist. The locations were near Fayetteville, Washington County, near Tillar, Drew County, and near Foreman, Little River County. β-caryophyllene was used as a synergist with (Z)-11-hexadecen-1-ol, a pheromone for Spodoptera exigua. Tedders traps were used in the experiment. Each pheromone trap was baited with (Z)-11-hexadecen-1-ol and approximately 3-6 mg of β-caryophyllene and each control trap was baited with (Z)-11-hexadecen-1-ol. The control trap contained no β-caryophyllene or other synergists. The trapped adult insects of Spodoptera exigua were collected on a daily basis and the total number of trapped insects was counted. Statistical analysis was done using the Least Squares means separation from the SAS GLM procedure.

`C=C1CC/C=C(\C)CC[C@@H]2[C@@H]1CC2(C)C` [β-caryophyllene] was tested, and the “increase in the number of captured Heliothis virescens” value ([1]; year 2004, approximately 3-6 mg β-caryophyllene added to pheromone mixture 7:3 (LURETAPE) vs control trap with pheromone mixture only, FIG. 2) was ~147%, the “increase in the number of captured Heliothis virescens” value ([1]; year 2005, approximately 3-6 mg β-caryophyllene added to pheromone mixture (Z,E)-9,12-tetradecadien-1-ol acetate and (Z)-9-tetradecen-1-ol acetate 7:3 (LURETAPE) vs control trap with pheromone mixture only, cotton and soybean habitat, Arkansas, FIG. 1) was ~131% and the “change in the number of captured Spodoptera exigua” value ([2]; year 2004, FIG. 4) was ~−9%. For the same compound, the “increase in the number of captured Spodoptera exigua” value ([2]; year 2005, cotton field, three locations in Arkansas, FIG. 3) was ~69%.
